Where “and” joins values, the source holds several entries; their conditions need not be identical. Identical values can stand only once.

Assay [1] deals with CtPilB (Chloracidobacterium thermophilum, UniProt G2LDI3). The assay is described as follows: Malachite green ATPase assay, dose response (benchtop). It is filed as biochemical. Particulars: IC50, CtPilB ATPase activity, full-length CtPilB, curve fitting, three independent experiments. The protocol:
The full-length CtPilB and the CtPilBΔN variant (with the first 139 residues at the N terminus truncated) were purified as preciously described ([29]). The HTS was conducted using 384-well microplates (Greiner, cat no. 781101). Each microwell for the screen contained a 15-μL reaction mixture consisting of 75 nM CtPilB, 0.5 mM ATP, 20 μM of a library compound, and 2% DMSO in activity buffer (50 mM N-tris(hydroxymethyl)methyl-3-aminopropanesulfonic acid [TAPS], 50 mM Tris, 75 mM KCl, 50 mM sodium acetate, 5 mM MgCl2, 50 mM ZnCl2 [pH 8.7]) ([29]). Reaction mixtures were incubated at 55°C for 10 min and transferred to ice for 5 min to stop the enzymatic reaction. MG reagent (50 μL) was added to each well for color development. After a 15-minute incubation, 5 μL of 34% (wt/vol) sodium-citrate (MP Chemicals) was added and the plate was mixed by shaking ([28], [29]). Absorbance at 620 nm (A620) was measured using a SpectraMax M5 microplate reader at room temperature. The HTS was performed at the Virginia Tech Center for Drug Discovery (VTCDD) Screening Laboratory.
The effects of inhibitors on the ATPase activity of CtPilB and CtPilBΔN and the binding of MANT-ATP were determined as described previously ([28], [29]). Stock solutions were prepared by dissolving benserazide hydrochloride (Alfa Aesar) or levodopa (Spectrum Chemical Mfg. Corp.) in dimethyl sulfoxide (DMSO; Fisher Biotech). Next, 10× working stocks for given concentrations of an inhibitor were freshly prepared before their use in an experiment. GraphPad Prism v7.04 was used for curve fitting and Student’s t test was used for statistical analysis.

The subject of assay [2] is M. xanthus adventurous (A) motility. The assay is described as follows: Expansion of ΔpilB strain DK10416 (A motility only) on hard agar. It is filed as cell-based, Myxococcus xanthus. Particulars: up to 128 μM. The source says:
On the other hand, YZ1674 and YZ2232, which have both A and S motility, were affected in their expansion on hard agar by both compounds (Fig. S4 and S5) at concentrations similar to those on soft agar. Indeed, the results with hard agar plates mirror those with soft agar. […] Because neither benserazide nor levodopa had any effect on A motility (Fig. S3C and D), the net differences on hard agar at different concentrations of the inhibitor (Fig. S4) can be viewed as confirmation of its effect on S motility (Fig. 5). […] It is plausible that this inhibition is attributable to their effects on the PilB ATPase in vivo.
M. xanthus was grown and maintained at 32°C in Casitone-yeast extract (CYE) medium ([49]). Motility assays were conducted with strains DK10416 (ΔpilB) ([40]), YZ1674 (ΔpilB att::MxpilB) ([50]), and YZ2232 (ΔpilB att::MC3pilB) ([30], [51]) as previously described ([28]). One modification was that 10% India ink was included in the cell suspension to mark the initial spot on agar plates. All experiments were conducted in quintuplicates and the diameter of the initial spot, as marked by India ink, was subtracted for data analysis.

CtPilB, sequence (G2LDI3 entry or part of it): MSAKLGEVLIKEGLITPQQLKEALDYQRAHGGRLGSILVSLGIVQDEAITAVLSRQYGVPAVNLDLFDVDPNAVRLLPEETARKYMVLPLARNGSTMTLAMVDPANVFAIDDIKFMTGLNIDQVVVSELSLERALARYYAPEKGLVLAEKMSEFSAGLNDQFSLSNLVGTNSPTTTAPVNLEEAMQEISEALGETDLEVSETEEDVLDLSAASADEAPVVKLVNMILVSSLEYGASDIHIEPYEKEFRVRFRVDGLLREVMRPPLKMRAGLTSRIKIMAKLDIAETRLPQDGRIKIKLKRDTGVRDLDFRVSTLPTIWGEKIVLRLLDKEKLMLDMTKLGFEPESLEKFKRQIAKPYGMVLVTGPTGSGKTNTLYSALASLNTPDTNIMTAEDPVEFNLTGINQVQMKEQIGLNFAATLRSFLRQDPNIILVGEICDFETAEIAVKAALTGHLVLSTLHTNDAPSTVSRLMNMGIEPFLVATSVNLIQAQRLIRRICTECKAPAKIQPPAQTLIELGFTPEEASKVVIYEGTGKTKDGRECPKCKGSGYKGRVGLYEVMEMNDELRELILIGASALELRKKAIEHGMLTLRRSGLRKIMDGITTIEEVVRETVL

`NC(CO)C(=O)NNCc1ccc(O)c(O)c1O` (stereo not shown) [benserazide]: the IC50 – broadly, the concentration that inhibits the measured activity by half – in assay [1] was found to be 2.1 ± 0.4 µM. In addition, the “effect on expansion of DK10416 (A motility)” value in assay [2] is recorded as “neither benserazide nor levodopa influenced the expansion of DK10416”.

Regarding `N[C@@H](Cc1ccc(O)c(O)c1)C(=O)O` [levodopa, 3,4-dihydroxyphenylalanine], the IC50 in assay [1] is 58 µM and 58.8 µM. Moreover, the “effect on expansion of DK10416 (A motility)” value in assay [2] was “neither benserazide nor levodopa influenced the expansion of DK10416”.

Values taken from article PMC9769694, “Discovery of Two Inhibitors of the Type IV Pilus Assembly ATPase PilB as Potential Antivirulence Compounds” (Microbiology Spectrum, 2022).
